# Measurements published in patent US20250129018A1, “PLEUROMUTILIN DERIVATIVES CONTAINING CYCLOALKYL GROUP AND PREPARATION METHODS AND APPLICATIONS THEREOF” (priority 2023, published 2025).
# Legend:
# Experiment in all cases: MIC, two-fold serial dilution method
# MRSA-337371 = assay type: cell-based, Methicillin-resistant Staphylococcus aureus; conditions: MRSA-337371
# Description: (§1) The pleuromutilin derivatives 1-4 prepared from Example 9 of the present disclosure were determined for their effect on Methicillin-resistant Staphylococcus aureus, Methicillin-resistant Staphylococcus epidermidis, standard strains of Staphylococcus aureus (S. aureus-29213 and S. aureus-25923), clinical strains 1-48 of S. aureus, Escherichia coli, S. agalactiae and S. dysgalactiae equisimilis (S. dysgalactiae-1, S. dysgalactiae-2, S. dysgalactiae-3) and minimum inhibitory concentration (MIC) using a two-fold serial dilution method, and the results were shown in Table 1, Table 2 and Table 3. The standard strains are commercially available from ATCC, and the clinical strains are preserved by Lanzhou Institute of Husbandry and Pharmaceutical Science of Chinese Academy of Agricultural Sciences (Lanzhou, Gansu, China).
# S. aureus-29213 = assay type: cell-based, Staphylococcus aureus; conditions: S. aureus-29213
# Description: as §1
# S. aureus-25923 = assay type: cell-based, Staphylococcus aureus; conditions: S. aureus-25923
# Description: as §1
# MRSE = assay type: cell-based, Methicillin-resistant Staphylococcus epidermidis
# Description: as §1
# S. dysgalactiae-2 = assay type: cell-based, S. dysgalactiae equisimilis; conditions: S. dysgalactiae-2
# Description: as §1
# S. dysgalactiae-1 = assay type: cell-based, S. dysgalactiae equisimilis; conditions: S. dysgalactiae-1
# Description: as §1
# S. dysgalactiae-3 = assay type: cell-based, S. dysgalactiae equisimilis; conditions: S. dysgalactiae-3
# Description: as §1
# S. agalactiae-1 = assay type: cell-based; conditions: S. agalactiae-1
# Description: as §1
# E. coli-25922 = assay type: cell-based, Escherichia coli; conditions: E. coli-25922
# Description: as §1
SMILES,minimum inhibitory concentration (MRSA-337371) [µg/mL],minimum inhibitory concentration (S. aureus-29213) [µg/mL],minimum inhibitory concentration (S. aureus-25923) [µg/mL],minimum inhibitory concentration (MRSE) [µg/mL],minimum inhibitory concentration (S. dysgalactiae-2) [µg/mL],minimum inhibitory concentration (S. dysgalactiae-1) [µg/mL],minimum inhibitory concentration (S. dysgalactiae-3) [µg/mL],minimum inhibitory concentration (S. agalactiae-1) [µg/mL],minimum inhibitory concentration (E. coli-25922) [µg/mL]
C=CC1(C)CC(OC(=O)CSC(C)(C)CNC(=O)C2CC2)C2(C)C(C)CCC3(CCC(=O)C32)C(C)C1O (stereo not drawn) [derivative 1],0.031,0.031,0.031,0.031,0.031,0.031,0.031,0.031,>16
C=CC1(C)CC(OC(=O)CSC(C)(C)CNC(=O)C2CCCC2)C2(C)C(C)CCC3(CCC(=O)C32)C(C)C1O (stereo not drawn) [derivative 3],0.25,0.125,0.125,0.25,0.125,0.125,0.125,0.125,>16
C=CC1(C)CC(OC(=O)CSC(C)(C)CNC(=O)C2CCCCC2)C2(C)C(C)CCC3(CCC(=O)C32)C(C)C1O (stereo not drawn) [derivative 4],0.125,0.125,0.125,0.25,0.125,0.125,0.125,0.125,>16
